Reference: US8445409B2, “Use of 5-benzyloxymethyl-1,2-isoxazoline derivatives as a herbicide” (Moghu Research Center Ltd., priority 2007, dated 2013)

Legend:
[1] = test system: Indian joint-vetch; assay: Upland pot test, pre-/post-emergence spray, visual rating; assay type: in vivo, Indian joint-vetch (AESIN); conditions: 2 weeks after spray, 0-10 scale (10=completely killed)
Text: To a rectangular plastic pot having a surface area of 300 cm^2, mixed soils including blend bed soil (Boonong, Horticultural Bed Soil No. 3) and sandy loam soil were filled (mixing ratio, 1:1). Seeds of the eight different types of weeds including gramineous weed such as barnyardgrass, large crabgrass, green foxtail, fall panicum, and broadleaf weed such as common cocklebur, velvetleaf, Indian joint-vetch, and morningglory were sown. To the other pot containing the same soil mixture, seeds of the five different types of crops including corn, soybean, cotton, wheat and rice were sown. Pots were kept in a greenhouse of which temperature was maintained at 25˜30° C. (day) or 15˜25° C. (night), and regularly watered.
After fourteen days and when the crops and the weeds reached their three-leaf stage, the other set of a crop pot and a weed pot were prepared by the same method as described above. Then, “test substance” was sprayed thereto. In this case, spray treatment to the plants after they have grown for two weeks corresponded to post-emergence treatment while spray treatment to the seeds right after the sowing corresponded to pre-emergence treatment. Spray was carried out by using a track sprayer (R&D Sprayer, USA) equipped with a Teejet 8002 nozzle (Spraying Systems Co., USA). Spray volume was adjusted to 300 L/ha. The spray solution was prepared by dissolving the “test substance” in acetone and adding the same volume of 0.2% (v/v) Tween 20 aqueous solution. Dosage of the test substance was 500, 250, 125, 62.5 or 31.3 g/ha. Two weeks after the spray of the test substance, efficacy and phytotoxic effect to the crops and the weeds were visually measured based on a 0 to 10 scale (0: no efficacy, 10: completely killed).

[2] = test system: Kentucky bluegrass; assay: Selective control of grassy weeds in turf (Example 3-1), visual rating; assay type: in vivo; conditions: four weeks after spray, 0-100 scale (100=completely killed)
Text: (§1) Commercially available sod mats of zoysiagrass and bentgrass, Kentucky bluegrass, and perennial ryegrass were purchased. After cutting each turf sod mat in a size of 10 cm×20 cm, it was transplanted to a rectangular plastic pot having a surface area of 300 cm^2 wherein mixed soils including blend of a bed soil (Boonong, Horticultural Nursery Soil No. 3) and sandy loam soil were filled (mixing ratio, 1:1). After transplanting, the grass was mowed (0.5˜1.0 cm in height) once a week, and kept for one month in a greenhouse maintained at 25˜30° C. (day) or 15˜25° C. (night). Then three strips of 1 cm width were removed by excision with a scissor. The open space was filled with a new soil, and seeds of large crabgrass, annual bluegrass, or goosegrass were sown. The pots were kept in a greenhouse. When the said weeds were grown up to the 3 leaf stage, another set was prepared in the same method. The first set represented post-emergence (POST) and the second set represented pre-emergence (PRE) stages of the weeds (large crabgrass, annual bluegrass, goosegrass). Then the test compound was applied at 0.25, 0.5. 1.0, 2.0, and 4.0 kg/ha. Spray was made by a track sprayer equipped with a Teejet 8002 nozzle. Spray volume was adjusted to 2,000 L/ha. The spray solution was prepared by dissolving the “test substance” in acetone and adding the same volume of 0.2% (v/v) Tween 20 aqueous solution. Four weeks after the spray of the test substance, phytotoxicity to the turfgrass and herbicidal activity to the said weeds were visually evaluated based on 0 to 100 scale (0: no phytotoxic effect, 100: completely killed). The test was conducted in a completely randomized design with 3 replicates.

[3] = test system: Perennial ryegrass; assay: as above; assay type: in vivo; conditions: four weeks after spray, 0-100 scale (100=completely killed)
Text: as §1

[4] = test system: Bentgrass; assay: as above; assay type: in vivo; conditions: four weeks after spray, 0-100 scale (100=completely killed)
Text: as §1

[5] = test system: Annual bluegrass; assay: as above; assay type: in vivo; conditions: four weeks after spray, 0-100 scale (100=completely killed); for Herbicidal activity, visual: Weeds ABG (POST): 3 leaf stage
Text: as §1

[6] = test system: Goosegrass; assay: as above; assay type: in vivo; conditions: four weeks after spray, 0-100 scale (100=completely killed); for Herbicidal activity, visual: Weeds GSG (POST): 3 leaf stage
Text: as §1

[7] = test system: Zoysiagrass; assay: as above; assay type: in vivo; conditions: four weeks after spray, 0-100 scale (100=completely killed)
Text: as §1

[8] = test system: Large crabgrass; assay: as above; assay type: in vivo; conditions: four weeks after spray, 0-100 scale (100=completely killed); for Herbicidal activity, visual: Weeds LCG (POST): 3 leaf stage
Text: as §1

Compound: Cc1ccsc1C1=NOC(C)(COCc2c(F)cccc2F)C1 (stereo not drawn) [test substance, 5-(2,6-difluorobenzyl)oxymethyl-5-methyl-3-(4-methylthiophen-5-yl)-1,2-isoxazoline]
- Visual measurement: Broadleaf weed, Indian joint-vetch ([1]; post-emergence foliar spray at three leaf stage, 31.2 g/ha): 0
- Visual measurement: Broadleaf weed, Indian joint-vetch ([1]; post-emergence foliar spray at three leaf stage, 62.5 g/ha): 1
- Visual measurement: Broadleaf weed, Indian joint-vetch ([1]; post-emergence foliar spray at three leaf stage, 125 g/ha): 2
- Visual measurement: Broadleaf weed, Indian joint-vetch ([1]; post-emergence foliar spray at three leaf stage, 250 g/ha): 3
- Visual measurement: Broadleaf weed, Indian joint-vetch ([1]; post-emergence foliar spray at three leaf stage, 500 g/ha): 4
- Visual measurement: Broadleaf weed, Indian joint-vetch ([1]; pre-emergence soil treatment, 31.2 g/ha): 0
- Visual measurement: Broadleaf weed, Indian joint-vetch ([1]; pre-emergence soil treatment, 62.5 g/ha): 0
- Visual measurement: Broadleaf weed, Indian joint-vetch ([1]; pre-emergence soil treatment, 125 g/ha): 0
- Visual measurement: Broadleaf weed, Indian joint-vetch ([1]; pre-emergence soil treatment, 250 g/ha): 0
- Visual measurement: Broadleaf weed, Indian joint-vetch ([1]; pre-emergence soil treatment, 500 g/ha): 0
- Phytotoxicity, visual: Turfgrass KBG ([2]; 0.25 kg/ha): 0
- Phytotoxicity, visual: Turfgrass KBG ([2]; 0.5 kg/ha): 0
- Phytotoxicity, visual: Turfgrass KBG ([2]; 1 kg/ha): 0
- Phytotoxicity, visual: Turfgrass KBG ([2]; 2 kg/ha): 0
- Phytotoxicity, visual: Turfgrass KBG ([2]; 4 kg/ha): 21
- Phytotoxicity, visual: Turfgrass PRG ([3]; 0.25 kg/ha): 0
- Phytotoxicity, visual: Turfgrass PRG ([3]; 0.5 kg/ha): 0
- Phytotoxicity, visual: Turfgrass PRG ([3]; 1 kg/ha): 0
- Phytotoxicity, visual: Turfgrass PRG ([3]; 2 kg/ha): 0
- Phytotoxicity, visual: Turfgrass PRG ([3]; 4 kg/ha): 0
- Phytotoxicity, visual: Turfgrass BTG ([4]; 0.25 kg/ha): 0
- Phytotoxicity, visual: Turfgrass BTG ([4]; 0.5 kg/ha): 0
- Phytotoxicity, visual: Turfgrass BTG ([4]; 1 kg/ha): 0
- Phytotoxicity, visual: Turfgrass BTG ([4]; 2 kg/ha): 0
- Phytotoxicity, visual: Turfgrass BTG ([4]; 4 kg/ha): 10
- Herbicidal activity, visual: Weeds ABG (POST) ([5]; 0.25 kg/ha): 60
- Herbicidal activity, visual: Weeds ABG (PRE) ([5]; 0.25 kg/ha): 100
- Herbicidal activity, visual: Weeds ABG (POST) ([5]; 0.5 kg/ha): 75
- Herbicidal activity, visual: Weeds ABG (PRE) ([5]; 0.5 kg/ha): 100
- Herbicidal activity, visual: Weeds ABG (POST) ([5]; 1 kg/ha): 83
- Herbicidal activity, visual: Weeds ABG (PRE) ([5]; 1 kg/ha): 100
- Herbicidal activity, visual: Weeds ABG (POST) ([5]; 2 kg/ha): 92
- Herbicidal activity, visual: Weeds ABG (PRE) ([5]; 2 kg/ha): 100
- Herbicidal activity, visual: Weeds ABG (POST) ([5]; 4 kg/ha): 95
- Herbicidal activity, visual: Weeds ABG (PRE) ([5]; 4 kg/ha): 100
- Herbicidal activity, visual: Weeds GSG (POST) ([6]; 0.25 kg/ha): 85
- Herbicidal activity, visual: Weeds GSG (PRE) ([6]; 0.25 kg/ha): 100
- Herbicidal activity, visual: Weeds GSG (POST) ([6]; 0.5 kg/ha): 95
- Herbicidal activity, visual: Weeds GSG (PRE) ([6]; 0.5 kg/ha): 100
- Herbicidal activity, visual: Weeds GSG (POST) ([6]; 1 kg/ha): 100
- Herbicidal activity, visual: Weeds GSG (PRE) ([6]; 1 kg/ha): 100
- Herbicidal activity, visual: Weeds GSG (POST) ([6]; 2 kg/ha): 100
- Herbicidal activity, visual: Weeds GSG (PRE) ([6]; 2 kg/ha): 100
- Herbicidal activity, visual: Weeds GSG (POST) ([6]; 4 kg/ha): 100
- Herbicidal activity, visual: Weeds GSG (PRE) ([6]; 4 kg/ha): 100
- Phytotoxicity, visual: Turfgrass ZSG ([7]; 0.25 kg/ha): 0
- Phytotoxicity, visual: Turfgrass ZSG ([7]; 0.5 kg/ha): 0
- Phytotoxicity, visual: Turfgrass ZSG ([7]; 1 kg/ha): 0
- Phytotoxicity, visual: Turfgrass ZSG ([7]; 2 kg/ha): 0
- Phytotoxicity, visual: Turfgrass ZSG ([7]; 4 kg/ha): 12
- Herbicidal activity, visual: Weeds LCG (POST) ([8]; 0.25 kg/ha): 80
- Herbicidal activity, visual: Weeds LCG (PRE) ([8]; 0.25 kg/ha): 100
- Herbicidal activity, visual: Weeds LCG (POST) ([8]; 0.5 kg/ha): 90
- Herbicidal activity, visual: Weeds LCG (PRE) ([8]; 0.5 kg/ha): 100
- Herbicidal activity, visual: Weeds LCG (POST) ([8]; 1 kg/ha): 95
- Herbicidal activity, visual: Weeds LCG (PRE) ([8]; 1 kg/ha): 100
- Herbicidal activity, visual: Weeds LCG (POST) ([8]; 2 kg/ha): 100
- Herbicidal activity, visual: Weeds LCG (PRE) ([8]; 2 kg/ha): 100
- Herbicidal activity, visual: Weeds LCG (POST) ([8]; 4 kg/ha): 100
- Herbicidal activity, visual: Weeds LCG (PRE) ([8]; 4 kg/ha): 100
